Where two headings read alike, the source gives them in different places.

The target of one assay is PDGFRβ (Rattus norvegicus (Rat), UniProt Q05030). In words: PDGFRβ Cellular Assay (PDGFRb P-Y751 HTRF in A10 cells stimulated with PDGF-BB). The assay is classed as cell-based. In short, it runs like this: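 Phospho-Y751 PDGFRβ was measured by HTRF in lysates of A10 rat cells. Cells received compound for 3 hours before PDGF-BB stimulation (100 ng/mL working stock).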
The target of assay [1] is His6-TEV-PDGFRβ (557-1016) (Homo sapiens (Human), UniProt P09619). As to the kind of experiment: PDGFRβ HTRF Assay. The assay is classed as biochemical. The note with it: read-out: PDGFR HTRF IC50. In short, it runs like this:
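HTRF KinEASE-TK readout (665/620 nm ratio) of TK-biotin substrate phosphorylation by His-tagged PDGFRβ kinase domain. Enzyme and inhibitor preincubated 30 min, then ATP/substrate added for 3 h at room temperature before 60 min EDTA quench/detection.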

For assay [2], the target named is Tb-labeled inactive PDGFRβ (Homo sapiens (Human), UniProt P09619). As to the kind of experiment: PDGFRβ LanthaScreen Assay. The assay is classed as binding. The note with it: read-out: PDGFR Lantha IC50.
Chain of Tb-labeled inactive PDGFRβ (P09619 33-1106): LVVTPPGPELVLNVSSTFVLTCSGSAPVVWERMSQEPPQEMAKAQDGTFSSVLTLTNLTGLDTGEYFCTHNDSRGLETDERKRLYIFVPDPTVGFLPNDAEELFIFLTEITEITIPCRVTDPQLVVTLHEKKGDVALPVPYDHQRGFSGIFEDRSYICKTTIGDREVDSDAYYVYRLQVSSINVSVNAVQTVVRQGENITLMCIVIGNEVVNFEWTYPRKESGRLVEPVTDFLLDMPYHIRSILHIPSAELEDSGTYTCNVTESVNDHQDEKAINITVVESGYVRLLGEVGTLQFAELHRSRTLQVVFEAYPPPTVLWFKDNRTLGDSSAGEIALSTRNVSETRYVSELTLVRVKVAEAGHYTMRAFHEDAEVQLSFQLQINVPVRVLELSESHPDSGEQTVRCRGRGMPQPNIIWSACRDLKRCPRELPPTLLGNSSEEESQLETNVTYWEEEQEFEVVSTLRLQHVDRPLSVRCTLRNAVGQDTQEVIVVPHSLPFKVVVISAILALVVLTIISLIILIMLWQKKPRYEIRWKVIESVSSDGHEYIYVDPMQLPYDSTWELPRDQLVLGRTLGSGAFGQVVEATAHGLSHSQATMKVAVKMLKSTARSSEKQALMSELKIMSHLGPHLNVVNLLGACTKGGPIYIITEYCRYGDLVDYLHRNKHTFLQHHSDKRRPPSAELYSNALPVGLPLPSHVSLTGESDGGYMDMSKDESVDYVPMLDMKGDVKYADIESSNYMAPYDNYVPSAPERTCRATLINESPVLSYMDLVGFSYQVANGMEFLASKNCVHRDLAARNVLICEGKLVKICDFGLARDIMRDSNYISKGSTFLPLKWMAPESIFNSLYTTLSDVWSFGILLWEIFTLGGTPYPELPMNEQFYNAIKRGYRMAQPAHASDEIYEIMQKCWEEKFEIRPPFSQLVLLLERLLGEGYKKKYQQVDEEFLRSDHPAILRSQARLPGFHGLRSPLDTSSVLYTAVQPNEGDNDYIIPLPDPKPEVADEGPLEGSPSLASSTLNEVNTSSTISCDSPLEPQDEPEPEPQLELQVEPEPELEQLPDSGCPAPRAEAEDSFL

Chain of PDGFRβ (Q05030 32-1097): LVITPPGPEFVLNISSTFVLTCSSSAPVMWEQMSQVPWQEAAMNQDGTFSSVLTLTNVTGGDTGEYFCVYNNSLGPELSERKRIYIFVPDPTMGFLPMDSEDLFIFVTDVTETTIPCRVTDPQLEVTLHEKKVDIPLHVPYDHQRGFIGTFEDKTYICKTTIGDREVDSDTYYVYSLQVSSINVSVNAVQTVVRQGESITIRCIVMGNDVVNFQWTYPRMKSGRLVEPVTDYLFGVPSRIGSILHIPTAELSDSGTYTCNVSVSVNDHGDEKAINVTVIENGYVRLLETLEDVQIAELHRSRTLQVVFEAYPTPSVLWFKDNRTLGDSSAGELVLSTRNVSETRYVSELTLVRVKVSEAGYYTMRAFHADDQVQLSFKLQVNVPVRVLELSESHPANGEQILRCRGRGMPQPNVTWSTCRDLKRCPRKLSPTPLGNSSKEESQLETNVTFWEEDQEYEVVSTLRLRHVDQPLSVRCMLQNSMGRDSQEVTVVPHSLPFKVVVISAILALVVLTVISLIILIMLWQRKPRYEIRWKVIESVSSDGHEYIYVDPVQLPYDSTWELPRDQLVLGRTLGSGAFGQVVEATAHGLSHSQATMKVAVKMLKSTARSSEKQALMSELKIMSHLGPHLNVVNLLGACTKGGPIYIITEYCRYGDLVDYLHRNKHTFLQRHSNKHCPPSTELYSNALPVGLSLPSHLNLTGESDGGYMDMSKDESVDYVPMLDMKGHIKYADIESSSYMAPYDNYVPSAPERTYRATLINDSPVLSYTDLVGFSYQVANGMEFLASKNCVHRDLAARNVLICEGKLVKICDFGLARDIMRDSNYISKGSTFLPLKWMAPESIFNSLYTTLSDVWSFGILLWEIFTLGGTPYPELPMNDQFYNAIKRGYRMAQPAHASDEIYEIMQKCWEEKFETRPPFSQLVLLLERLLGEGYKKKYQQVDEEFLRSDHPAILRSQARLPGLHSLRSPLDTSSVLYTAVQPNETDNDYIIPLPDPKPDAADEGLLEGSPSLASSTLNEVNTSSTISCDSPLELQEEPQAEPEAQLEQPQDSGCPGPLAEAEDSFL
Chain of His6-TEV-PDGFRβ (557-1016) (P09619 557-1016): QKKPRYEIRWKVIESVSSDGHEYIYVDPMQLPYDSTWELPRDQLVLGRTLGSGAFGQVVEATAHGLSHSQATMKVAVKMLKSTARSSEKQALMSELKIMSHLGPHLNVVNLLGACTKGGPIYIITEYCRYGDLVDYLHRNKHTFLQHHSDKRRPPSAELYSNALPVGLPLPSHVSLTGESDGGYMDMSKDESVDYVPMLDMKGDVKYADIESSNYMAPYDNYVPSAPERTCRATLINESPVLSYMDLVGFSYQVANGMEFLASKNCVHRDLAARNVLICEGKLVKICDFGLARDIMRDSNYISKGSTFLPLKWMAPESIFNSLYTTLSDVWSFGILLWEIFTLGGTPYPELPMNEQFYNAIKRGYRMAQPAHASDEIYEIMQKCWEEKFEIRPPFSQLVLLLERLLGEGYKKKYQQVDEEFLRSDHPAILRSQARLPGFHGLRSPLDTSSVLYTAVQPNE

Broadly, the IC50 is the concentration needed to halve the response being measured. `Cc1ncc(NC(=O)CN2CCC3(CC3)C2)cc1NC(=O)c1cnn2cc(-c3cnn4c3COCC4)sc12` [Example 474, N-(5-(2-(5-azaspiro[2.4]heptan-5-yl)acetamido)-2-methylpyridin-3-yl)-2-(6,7-dihydro-4H-pyrazolo[5,1-c][1,4]oxazin-3-yl)pyrazolo[5,1-b]thiazole-7-carboxamide]: the IC50 amounted to 3.9 nM on PDGFRβ (read-out: PDGFR Cellular IC50), 0.2 nM in assay [1] and 1.7 nM in assay [2].
`Cc1ncc(NC(=O)CN2CCCC2(C)C)cc1NC(=O)c1cnn2cc(-c3cnn4c3COCC4)sc12` [Example 458, 2-(6,7-dihydro-4H-pyrazolo[5,1-c][1,4]oxazin-3-yl)-N-(5-(2-(2,2-dimethylpyrrolidin-1-yl)acetamido)-2-methylpyridin-3-yl)pyrazolo[5,1-b]thiazole-7-carboxamide]: the IC50 on PDGFRβ (read-out: PDGFR Cellular IC50) came to 2 nM; in assay [1], 0.3 nM; in assay [2], 1.7 nM.
Turning to `Cc1ncc(NC(=O)CN2CC(C)(C)C2)cc1NC(=O)c1cnn2cc(-c3nn(C)nc3C)sc12` [Example 445, 2-(2,5-Dimethyl-2H-1,2,3-triazol-4-yl)-N-(5-(2-(3,3-dimethylazetidin-1-yl)acetamido)-2-methylpyridin-3-yl)pyrazolo[5,1-b]thiazole-7-carboxamide], the IC50 is 2.2 nM on PDGFRβ (read-out: PDGFR Cellular IC50), 0.3 nM in assay [1] and 2.1 nM in assay [2].
The corresponding values for `Cc1ncc(NC(=O)CN2CCC[C@@H]2C)cc1NC(=O)c1cnn2cc(-c3cnn4c3CCC4)sc12` [Example 416, (S)-2-(5,6-dihydro-4H-pyrrolo[1,2-b]pyrazol-3-yl)-N-(2-methyl-5-(2-(2-methylpyrrolidin-1-yl)acetamido)pyridin-3-yl)pyrazolo[5,1-b]thiazole-7-carboxamide] are 2.3 nM, 0.2 nM and 1.6 nM.
With `Cc1cc(C(=O)NCCN2CCCC23CC3)sc1NC(=O)c1cnn2cc(-c3cnn(C)c3)sc12` [Example 37, N-(5-((2-(4-azaspiro[2.4]heptan-4-yl)ethyl)carbamoyl)-3-methylthiophen-2-yl)-2-(1-methyl-1H-pyrazol-4-yl)pyrazolo[5,1-b]thiazole-7-carboxamide], the half-inhibitory concentration (IC50) at PDGFRβ (read-out: PDGFR Cellular IC50) stood at 11.2 nM; in assay [1], 22.8 nM; in assay [2], 892 nM.
In the case of `COCCn1cc(-c2cn3ncc(C(=O)Nc4cc(NC(=O)C[C@@H]5CCN(C(C)C)C5)cnc4C)c3s2)cn1` [Example 466, (S)—N-(5-(2-(1-isopropylpyrrolidin-3-yl)acetamido)-2-methylpyridin-3-yl)-2-(1-(2-methoxyethyl)-1H-pyrazol-4-yl)pyrazolo[5,1-b]thiazole-7-carboxamide], the IC50 came out at 350 nM at PDGFRβ (read-out: PDGFR Cellular IC50), 9 nM in assay [1] and 261 nM in assay [2].
The corresponding values for `CCOc1ncccc1-c1cn2ncc(C(=O)Nc3cc(NC(=O)CN4CC(C)(C)C4)cnc3C)c2s1` [Example 436, N-(5-(2-(3,3-Dimethylazetidin-1-yl)acetamido)-2-methylpyridin-3-yl)-2-(2-ethoxypyridin-3-yl)pyrazolo[5,1-b]thiazole-7-carboxamide] are 1.6 nM, 0.1 nM and 0.9 nM.
On the same counts, the results for `Cc1ncc(C(=O)NCCN2CCCC23CCC3)cc1NC(=O)c1cnn2cc(-c3cnn4c3OCCC4)sc12` [Example 478, N-(5-((2-(5-azaspiro[3.4]octan-5-yl)ethyl)carbamoyl)-2-methylpyridin-3-yl)-2-(6,7-dihydro-5H-pyrazolo[5,1-b][1,3]oxazin-3-yl)pyrazolo[5,1-b]thiazole-7-carboxamide] are 4.6 nM, 0.3 nM and 3 nM.
On the same counts, the results for `Cc1ncc(NC(=O)C[C@@H]2CCN(C(C)C)C2)cc1NC(=O)c1cnn2cc(-c3cnn(C)c3)sc12` [Example 464, (S)—N-(5-(2-(1-isopropylpyrrolidin-3-yl)acetamido)-2-methylpyridin-3-yl)-2-(1-methyl-1H-pyrazol-4-yl)pyrazolo[5,1-b]thiazole-7-carboxamide] are 2000 nM, 5.2 nM and 145 nM.
Regarding `Cc1ncc(C(=O)NCCN2CCCC23CCC3)cc1NC(=O)c1cnn2cc(-c3cnn4c3COCC4)sc12` [Example 472, N-(5-((2-(5-azaspiro[3.4]octan-5-yl)ethyl)carbamoyl)-2-methylpyridin-3-yl)-2-(6,7-dihydro-4H-pyrazolo[5,1-c][1,4]oxazin-3-yl)pyrazolo[5,1-b]thiazole-7-carboxamide], the IC50 on PDGFRβ (read-out: PDGFR Cellular IC50) amounted to 5.4 nM; in assay [1], 0.4 nM; in assay [2], 2.8 nM.
On the same counts, the results for `Cc1cc(C(=O)NCCN2CCCC23CCC3)sc1NC(=O)c1cnn2cc(-c3cnn(C)c3)sc12` [Example 35, N-(5-((2-(5-azaspiro[3.4]octan-5-yl)ethyl)carbamoyl)-3-methylthiophen-2-yl)-2-(1-methyl-1H-pyrazol-4-yl)pyrazolo[5,1-b]thiazole-7-carboxamide] are 33.6 nM, 1.6 nM and 71.4 nM.
On the same counts, the results for `Cc1ncc(NC(=O)CN2CCCC2(C)C)cc1NC(=O)c1cnn2cc(-c3cn(C)nc3C)sc12` [Example 444, 2-(1,3-Dimethyl-1H-pyrazol-4-yl)-N-(5-(2-(2,2-dimethylpyrrolidin-1-yl)acetamido)-2-methylpyridin-3-yl)pyrazolo[5,1-b]thiazole-7-carboxamide] are 1.3 nM, 0.2 nM and 1.8 nM.
With `COCCn1cc(-c2cn3ncc(C(=O)Nc4cc(NC(=O)CCC5CCCN5C)cnc4C)c3s2)cn1` (stereo not drawn) [Example 462, 2-(1-(2-methoxyethyl)-1H-pyrazol-4-yl)-N-(2-methyl-5-(3-(1-methylpyrrolidin-2-yl)propanamido)pyridin-3-yl)pyrazolo[5,1-b]thiazole-7-carboxamide], the IC50 amounted to 298 nM at PDGFRβ (read-out: PDGFR Cellular IC50), 0.7 nM in assay [1] and 15.3 nM in assay [2].
The corresponding values for `COCCn1cc(-c2cn3ncc(C(=O)Nc4cc(NC(=O)CCN5CCCC5(C)C)cnc4C)c3s2)cn1` [Example 41, N-(5-(3-(2,2-dimethylpyrrolidin-1-yl)propanamido)-2-methylpyridin-3-yl)-2-(1-(2-methoxyethyl)-1H-pyrazol-4-yl)pyrazolo[5,1-b]thiazole-7-carboxamide] are 10 nM, 0.43 nM and 4.7 nM.
On the same counts, the results for `COCCn1cc(-c2cn3ncc(C(=O)Nc4cc(NC(=O)CN5CCC5C(C)C)cnc4C)c3s2)cn1` (stereo not drawn) [Example 467, N-(5-(2-(2-isopropylazetidin-1-yl)acetamido)-2-methylpyridin-3-yl)-2-(1-(2-methoxyethyl)-1H-pyrazol-4-yl)pyrazolo[5,1-b]thiazole-7-carboxamide] are 4.4 nM, 0.4 nM and 3 nM.
`Cc1ncc(NC(=O)CN2CC(C)(C)C2)cc1NC(=O)c1cnn2cc(-c3c(C)nn(C4COC4)c3C)sc12` [Example 425, 2-(3,5-dimethyl-1-(oxetan-3-yl)-1H-pyrazol-4-yl)-N-(5-(2-(3,3-dimethylazetidin-1-yl)acetamido)-2-methylpyridin-3-yl)pyrazolo[5,1-b]thiazole-7-carboxamide]: the IC50 stood at 11.7 nM against PDGFRβ (PDGFR Cellular IC50), 0.7 nM in assay [1] and 6.8 nM in assay [2].
For `Cc1ncc(NC(=O)CN2CCCC2(C)C)cc1NC(=O)c1cnn2cc(-c3cccnc3OCCF)sc12` [Example 448, N-(5-(2-(2,2-dimethylpyrrolidin-1-yl)acetamido)-2-methylpyridin-3-yl)-2-(2-(2-fluoroethoxy)pyridin-3-yl)pyrazolo[5,1-b]thiazole-7-carboxamide], the IC50 on PDGFRβ (read-out: PDGFR Cellular IC50) was found to be 2.4 nM; in assay [1], 0.2 nM; in assay [2], 1.8 nM.
On the same counts, the results for `Cc1ncc(NC(=O)CN2CCCCCC2)cc1NC(=O)c1cnn2cc(-c3cnn4c3OCCC4)sc12` [Example 420, N-(5-(2-(azepan-1-yl)acetamido)-2-methylpyridin-3-yl)-2-(6,7-dihydro-5H-pyrazolo[5,1-b][1,3]oxazin-3-yl)pyrazolo[5,1-b]thiazole-7-carboxamide] are 2.1 nM, 0.2 nM and 2.1 nM.
For the molecule `Cc1ncc(NC(=O)CN2CC(C)(C)C2)cc1NC(=O)c1cnn2cc(-c3cnn(C(F)F)c3)sc12` [Example 428, 2-(1-(difluoromethyl)-1H-pyrazol-4-yl)-N-(5-(2-(3,3-dimethylazetidin-1-yl)acetamido)-2-methylpyridin-3-yl)pyrazolo[5,1-b]thiazole-7-carboxamide], the IC50 at PDGFRβ (read-out: PDGFR Cellular IC50) was determined as 7.9 nM; in assay [1] it was 0.8 nM; in assay [2], 17.3 nM.
As for `COC1CN(CC(=O)Nc2cnc(C)c(NC(=O)c3cnn4cc(-c5cn(C)nc5C)sc34)c2)C1` [Example 441, 2-(1,3-Dimethyl-1H-pyrazol-4-yl)-N-(5-(2-(3-methoxyazetidin-1-yl)acetamido)-2-methylpyridin-3-yl)pyrazolo[5,1-b]thiazole-7-carboxamide], the figures for the IC50 (on PDGFRβ (read-out: PDGFR Cellular IC50); in assay [1]; in assay [2]) were 30.5 nM, 0.7 nM and 19.7 nM, respectively.
